Test system: C57BL/6 male mice
Assay: Urinary glucose excretion test (UGE test)
Type: in vivo
Details: 2 g/kg glucose after 30 minutes, urine collected for 24 hours
Method: The pharmaceutical efficacies of the compounds prepared in the Examples were investigated by a urinary glucose excretion test using C57BL/6 male mice (8-week-old, prepared and supplied from Orient Chemical Co. Ltd.).
Two mice were used in each group. The mice were fasted for 16 hours, and the compound of each of the Examples [10 mg/kg of the compound of Examples 1 to 12; and 3 mg/kg of the compound of Examples 13 to 38] was dissolved in a vehicle [a mixed solution of 5% 1-methyl-2-pyrrolidinone, 20% PEG, and 75% 20 mM sodium diphosphate], and orally administered to the mice. After 30 minutes, 2 g/kg of glucose was orally administered to the mice in all the groups. Thereafter, the mice were immediately put into a metabolic cage, and urine was collected for 24 hours. The mice were freely fed an hour after the administration of glucose.
The results obtained from the test, that is, the results obtained by measuring urinary glucose excretion in the C57BL/6 male mice according to the compounds of the Examples, are listed in Table 5.

[1] = 10 mg/kg oral (Examples 1 to 12)
[2] = 3 mg/kg oral (Examples 13 to 38)

`CCOc1ccc(Cc2cc([C@@H]3O[C@H](CO)[C@@H](O)[C@H](O)[C@H]3O)cc3c2OCC3)cc1` [Example 1, (2S,3R,4R,5S,6R)-2-(7-(4-ethoxybenzyl)-2,3-dihydrobenzofuran-5-yl)-6-hydroxymethyl-tetrahydro-2H-pyran-3,4,5-triol] showed a UGE [1] of 1.2 mg/20 g/24 hr.
`CCc1ccc(Cc2cc([C@@H]3O[C@H](CO)[C@@H](O)[C@H](O)[C@H]3O)cc3c2OCC3)cc1` [Example 2, (2S,3R,4R,5S,6R)-2-(7-(4-ethylbenzyl)-2,3-dihydrobenzofuran-5-yl)-6-hydroxymethyl-tetrahydro-2H-pyran-3,4,5-triol] gave a UGE [1] of 8.3 mg/20 g/24 hr.
With `CCCc1ccc(Cc2cc([C@@H]3O[C@H](CO)[C@@H](O)[C@H](O)[C@H]3O)cc3c2OCC3)cc1` [Example 3, (2R,3S,4R,5R,6S)-2-hydroxymethyl-6-(7-(4-n-propylbenzyl)-2,3-dihydrobenzofuran-5-yl)-tetrahydro-2H-pyran-3,4,5-triol] the UGE [1] was 3.7 mg/20 g/24 hr.
Compound `OC[C@H]1O[C@@H](c2cc3c(c(Cc4ccc(C(F)(F)F)cc4)c2)OCC3)[C@H](O)[C@@H](O)[C@@H]1O` [Example 4, (2R,3S,4R,5R,6S)-2-hydroxymethyl-6-(7-(4-trifluoromethylbenzyl)-2,3-dihydrobenzofuran-5-yl)tetrahydro-2H-pyran-3,4,5-triol] has a UGE [1] of 4.6 mg/20 g/24 hr.
Work on `OC[C@H]1O[C@@H](c2cc3c(c(Cc4ccc(OC(F)(F)F)cc4)c2)OCC3)[C@H](O)[C@@H](O)[C@@H]1O` [Example 5, (2R,3S,4R,5R,6S)-2-hydroxymethyl-6-(7-(4-trifluoromethoxybenzyl)-2,3-dihydrobenzofuran-5-yl)tetrahydro-2H-pyran-3,4,5-triol] yielded a UGE [1] of 3.7 mg/20 g/24 hr.
`OC[C@H]1O[C@@H](c2cc3c(c(Cc4ccc(F)cc4)c2)OCC3)[C@H](O)[C@@H](O)[C@@H]1O` [Example 6, (2S,3R,4R,5S,6R)-2-(7-(4-fluorobenzyl)-2,3-dihydrobenzofuran-5-yl)-6-(hydroxymethyl)tetrahydro-2H-pyran-3,4,5-triol] gave a UGE [1] of 3.9 mg/20 g/24 hr.
For `OC[C@H]1O[C@@H](c2cc3c(c(Cc4ccc5c(c4)OCCO5)c2)OCC3)[C@H](O)[C@@H](O)[C@@H]1O` [Example 7, (2S,3R,4R,5S,6R)-2-(7-((2,3-dihydrobenzo[b][1,4]dioxin-6-yl)methyl)-2,3-dihydrobenzofuran-5-yl)-6-(hydroxymethyl)tetrahydro-2H-pyran-3,4,5-triol], the UGE [1] was 2.8 mg/20 g/24 hr.
`OC[C@H]1O[C@@H](c2cc3c(c(Cc4ccc(OCC5CC5)cc4)c2)OCC3)[C@H](O)[C@@H](O)[C@@H]1O` [Example 8, (2S,3R,4R,5S,6R)-2-(7-(4-(cyclopropylmethoxy)benzyl)-2,3-dihydrobenzofuran-5-yl)-6-(hydroxymethyl)tetrahydro-2H-pyran-3,4,5-triol] showed a UGE [1] of 4.3 mg/20 g/24 hr.
`CCOc1ccc(Cc2cc([C@@H]3O[C@H](CO)[C@@H](O)[C@H](O)[C@H]3O)cc3c2OCC3)cc1F` [Example 9, (2S,3R,4R,5S,6R)-2-(7-(4-ethoxy-3-fluorobenzyl)-2,3-dihydrobenzofuran-5-yl)-6-(hydroxymethyl)tetrahydro-2H-pyran-3,4,5-triol] showed a UGE [1] of 4.6 mg/20 g/24 hr.
Work on `CCOc1ccc(Cc2cc([C@@H]3O[C@H](CO)[C@@H](O)[C@H](O)[C@H]3O)cc3c2OCC3)c(F)c1` [Example 10, (2S,3R,4R,5S,6R)-2-(7-(4-ethoxy-2-fluorobenzyl)-2,3-dihydrobenzofuran-5-yl)-6-(hydroxymethyl)tetrahydro-2H-pyran-3,4,5-triol] yielded a UGE [1] of 3.2 mg/20 g/24 hr.
For `OC[C@H]1O[C@@H](c2cc3c(c(Cc4ccc(O)cc4)c2)OCC3)[C@H](O)[C@@H](O)[C@@H]1O` [Example 11, (2S,3R,4R,5S,6R)-2-(7-(4-hydroxybenzyl)-2,3-dihydrobenzofuran-5-yl)-6-(hydroxymethyl)tetrahydro-2H-pyran-3,4,5-triol], the UGE [1] was 3.0 mg/20 g/24 hr.
Work on `CS(=O)(=O)CCCOc1ccc(Cc2cc(C3O[C@H](CO)[C@@H](O)[C@H](O)[C@H]3O)cc3c2OCC3)cc1` (stereo partly shown) [Example 12] yielded a UGE [1] of 0 mg/20 g/24 hr.
Compound `CCOc1ccc(Cc2cc([C@@H]3O[C@H](CO)[C@@H](O)[C@H](O)[C@H]3O)cc3c2CCC3)cc1` [Example 13, (2S,3R,4R,5S,6R)-2-(7-(4-ethoxybenzyl)-2,3-dihydro-1H-inden-5-yl)-6-(hydroxymethyl)tetrahydro-2H-pyran-3,4,5-triol] has a UGE [2] of 1.7 mg/20 g/24 hr.
With `CCCc1ccc(Cc2cc([C@@H]3O[C@H](CO)[C@@H](O)[C@H](O)[C@H]3O)cc3c2CCC3)cc1` [Example 17, (2R,3S,4R,5R,6S)-2-(hydroxymethyl)-6-(7-(4-propylbenzyl)-2,3-dihydro-1H-inden-5-yl)tetrahydro-2H-pyran-3,4,5-triol] the UGE [2] was 1.0 mg/20 g/24 hr.
`CC(C)c1ccc(Cc2cc([C@@H]3O[C@H](CO)[C@@H](O)[C@H](O)[C@H]3O)cc3c2CCC3)cc1` [Example 18, (2R,3S,4R,5R,6S)-2-(hydroxymethyl)-6-(7-(4-isopropylbenzyl)-2,3-dihydro-1H-inden-5-yl)tetrahydro-2H-pyran-3,4,5-triol] gave a UGE [2] of 7.0 mg/20 g/24 hr.
`CCOc1ccc(Cc2cc([C@@H]3O[C@H](CO)[C@@H](O)[C@H](O)[C@H]3O)cc3c2CCC3)cc1F` [Example 20, (2S,3R,4R,5S,6R)-2-(7-(4-ethoxy-3-fluorobenzyl)-2,3-dihydro-1H-inden-5-yl)-6-(hydroxymethyl)tetrahydro-2H-pyran-3,4,5-triol] showed a UGE [2] of 0.6 mg/20 g/24 hr.
With `CCOc1ccc(Cc2cc([C@@H]3O[C@H](CO)[C@@H](O)[C@H](O)[C@H]3O)cc3c2CCC3)c(F)c1` [Example 21, (2S,3R,4R,5S,6R)-2-(7-(4-ethoxy-2-fluorobenzyl)-2,3-dihydro-1H-inden-5-yl)-6-(hydroxymethyl)tetrahydro-2H-pyran-3,4,5-triol] the UGE [2] was 4.2 mg/20 g/24 hr.
Compound `Cc1ccc(Cc2cc([C@@H]3O[C@H](CO)[C@@H](O)[C@H](O)[C@H]3O)cc3c2CCC3)cc1F` [Example 25, (2S,3R,4R,5S,6R)-2-(7-(3-fluoro-4-methylbenzyl)-2,3-dihydro-1H-inden-5-yl)-6-(hydroxymethyl)tetrahydro-2H-pyran-3,4,5-triol] has a UGE [2] of 5.5 mg/20 g/24 hr.
In the case of `Cc1ccc(Cc2cc([C@@H]3O[C@H](CO)[C@@H](O)[C@H](O)[C@H]3O)cc3c2CCC3)c(F)c1` [Example 26, (2S,3R,4R,5S,6R)-2-(7-(2-fluoro-4-methylbenzyl)-2,3-dihydro-1H-inden-5-yl)-6-(hydroxymethyl)tetrahydro-2H-pyran-3,4,5-triol], the UGE [2] is reported as 4.8 mg/20 g/24 hr.

Reference: patent publication US9828366B2, “Bicyclic derivatives and pharmaceutical composition including the same” (HANMI PHARM. CO., LTD., priority 2014, dated 2017)
